The target of test [1] is T1, telomerase (Homo sapiens (Human), UniProt O14746). Kind of test: Primer extension assay for telomerase activity. It is filed as biochemical. The note with it: for pIC50: purified telomerase, dGTP 50 μM. The procedure:
Purified human telomerase was incubated with d(TTAGGG)3 (SEQ ID NO: 1) and deoxy-nucleoside triphosphates for 90 minutes at 37° C. All reactions were done in the presence of 200 dTTP and 10 μM dATP (50,000 cpm/pmol a-^33P-dATP). Activity was determined by incubating affinity purified telomerase extract with 1 μM primer [d(TTAGGG)3] (SEQ ID NO: 1), 200 μM dTTP, 50 μM dGTP, 10 μM dATP, 10 μCi [α-^33P]dATP (2000-4000 Ci/mmol) in a buffer containing 50 mM (N-2-hydroxyethyl piperazine-N′-3 propanesulfonic acid)-NaOH pH 8.5, 1 mM MgCl2, 1 mM DTT, 5% glycerol, 0.5 mM EGTA and 100 mM KOAc in a final reaction volume of 40 μl. Primer extension products were analyzed on a 15% polyacrylamide gel containing 7 M urea. A characteristic telomerase ladder has multiple bands. If a compound is not a substrate then (TTAGGG)3TTA (21 nt) (SEQ ID NO: 2). If a compound is a chain terminator then (TTAGGG)3TTAG* (22 nt) (SEQ ID NO: 3).
Purified human telomerase was incubated with d(TTAGGG)3 (SEQ ID NO: 1) and deoxy-nucleoside triphosphates for 90 minutes at 37° C. All reactions were done in the presence of 200 dTTP and 10 μM dATP (50,000 cpm/pmol a-^33P-dATP). Activity was determined by incubating affinity purified telomerase extract with […] primer [d(TTAGGG)3] (SEQ ID NO: 1), […] [α-^33P]dATP (2000-4000 Ci/mmol) in a buffer containing 50 mM (N-2-hydroxyethyl piperazine-N′-3 propanesulfonic acid)-NaOH pH 8.5, 1 mM MgCl2, 1 mM DTT, 5% glycerol, 0.5 mM EGTA and 100 mM KOAc in a final reaction volume of 40 μl. Primer extension products were analyzed on a 15% polyacrylamide gel containing 7 M urea. A characteristic telomerase ladder has multiple bands. If a compound is not a substrate then (TTAGGG)3TTA (21 nt) (SEQ ID NO: 2). If a compound is a chain terminator then (TTAGGG)3TTAG* (22 nt) (SEQ ID NO: 3).

Test [2] has as its target T1, telomerase. Kind of test: Flash plate (Flashplate) telomerase assay. It counts as biochemical. The note with it: affinity purified telomerase extract, 20 μM dGTP; read-out: Flashplate IC 50. The procedure: Determining IC50 for PMPGpp, (R)-PMPGpp and (S)-PMPGpp. Telomerase activity was determined using the “flash-plate” assay with concentrations of PMPGpp ranging from 0.05 μM to 50 μM.
Compound was pre-incubated with affinity purified telomerase extract, 100 nM primer [5′ biotin-d(AATCCGTCGAGCAGAGTT)] (SEQ ID NO: 4), 120 μM dTTP, 20 μM dGTP, […], in a buffer containing 50 mM Tris-Acetate (pH 8.2), 1 mM MgCl2, 1 mM DTT, 0.5 mM EGTA and 150 mM KOAc, 5.4 nM ^33P-labeled [d([…])] (SEQ ID NO: 5 (6×10^9 cpm/nmol) in a final reaction volume of 30 μl. Incubations were done for 90 min at 37° C. Following stoppage of the reaction with EDTA (10 mM), the reaction products were captured in a streptavidin coated 96 well FlashPlate. After a 2 hr capture period for the primer, the plates were washed five times (2×SSC, 0.1% SDS, 10 mM EDTA) and counted.
Compound was pre-incubated with affinity purified telomerase extract, 100 nM primer [5′ biotin-d(AATCCGTCGAGCAGAGTT)] (SEQ ID NO: 4), 120 μM dTTP, 20 μM dGTP, 10 μM dATP, in a buffer containing 50 mM Tris-Acetate (pH 8.2), 1 mM MgCl2, 1 mM DTT, 0.5 mM EGTA and 150 mM KOAc, 5.4 nM ^33P-labeled [d([…])] […]

pIC50: −log10 of the molar value. Values joined by “and” are separate entries in the source; they are usually repeats but may differ in a detail not shown here. Equal values may be shown once.

T1 sequence (O14746 whole entry): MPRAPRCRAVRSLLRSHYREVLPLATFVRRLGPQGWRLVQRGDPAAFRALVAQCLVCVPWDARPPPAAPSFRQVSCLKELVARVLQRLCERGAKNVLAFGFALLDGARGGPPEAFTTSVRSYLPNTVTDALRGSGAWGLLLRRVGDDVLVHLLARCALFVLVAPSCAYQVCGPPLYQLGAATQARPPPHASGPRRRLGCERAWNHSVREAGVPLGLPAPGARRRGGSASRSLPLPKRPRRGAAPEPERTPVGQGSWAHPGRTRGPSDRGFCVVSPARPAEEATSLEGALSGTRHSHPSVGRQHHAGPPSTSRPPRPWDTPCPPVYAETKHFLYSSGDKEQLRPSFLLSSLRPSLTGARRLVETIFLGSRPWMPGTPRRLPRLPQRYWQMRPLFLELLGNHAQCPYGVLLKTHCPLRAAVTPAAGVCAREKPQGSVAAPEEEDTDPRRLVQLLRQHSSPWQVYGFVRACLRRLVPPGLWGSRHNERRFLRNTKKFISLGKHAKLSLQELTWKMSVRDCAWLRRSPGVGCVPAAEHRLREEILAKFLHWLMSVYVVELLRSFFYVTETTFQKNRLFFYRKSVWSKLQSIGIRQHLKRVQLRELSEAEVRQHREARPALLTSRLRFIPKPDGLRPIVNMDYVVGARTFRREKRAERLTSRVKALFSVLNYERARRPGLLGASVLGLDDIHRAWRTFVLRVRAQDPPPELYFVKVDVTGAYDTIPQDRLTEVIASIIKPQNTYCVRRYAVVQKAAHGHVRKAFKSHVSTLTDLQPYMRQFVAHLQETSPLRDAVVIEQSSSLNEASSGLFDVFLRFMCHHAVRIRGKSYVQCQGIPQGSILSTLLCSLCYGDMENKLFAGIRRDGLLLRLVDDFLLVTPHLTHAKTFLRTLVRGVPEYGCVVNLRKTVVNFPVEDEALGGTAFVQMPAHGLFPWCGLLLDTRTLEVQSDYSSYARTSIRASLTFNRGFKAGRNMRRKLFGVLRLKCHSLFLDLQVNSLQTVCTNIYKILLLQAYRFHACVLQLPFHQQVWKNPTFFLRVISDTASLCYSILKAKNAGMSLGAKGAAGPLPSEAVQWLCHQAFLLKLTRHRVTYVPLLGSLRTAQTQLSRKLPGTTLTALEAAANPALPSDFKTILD

Turning to `CC(Cn1cnc2c(=O)[nH]c(N)nc21)OCP(=O)(O)OP(=O)(O)OP(=O)(O)O` (single isomer, unassigned) [ID#142692], the “Primer Ext. Assay Notes: telomerase substrate / chain terminator” value at telomerase [1] (listed as PMPGpp) is on record as “acts as a chain terminator”; at telomerase [1] (listed as R-PMPGpp), “resulting in chain termination”. Moreover, the pIC50 is ~6.00 and 6.00 against telomerase [1]; 6.00 on telomerase [2].

On to `CC(Cn1cnc2c(=O)[nH]c(N)nc21)OCP(=O)(O)OP(=O)(O)OP(=O)(O)O` (single isomer, unassigned) [ID#142751, PMPG free acid, S form], for which the pIC50 on telomerase [1] was 4.87; on telomerase [2] it was 4.85.
